From ChEMBL document CHEMBL5291721, “A preclinical secondary pharmacology resource illuminates target-adverse drug reaction associations of marketed drugs” (Nat Commun, 2023)

Assays:
Adenosine receptor A1 = biological target: T1, Adenosine receptor A1 (Homo sapiens, UniProt P30542)
T1 sequence (P30542 whole entry): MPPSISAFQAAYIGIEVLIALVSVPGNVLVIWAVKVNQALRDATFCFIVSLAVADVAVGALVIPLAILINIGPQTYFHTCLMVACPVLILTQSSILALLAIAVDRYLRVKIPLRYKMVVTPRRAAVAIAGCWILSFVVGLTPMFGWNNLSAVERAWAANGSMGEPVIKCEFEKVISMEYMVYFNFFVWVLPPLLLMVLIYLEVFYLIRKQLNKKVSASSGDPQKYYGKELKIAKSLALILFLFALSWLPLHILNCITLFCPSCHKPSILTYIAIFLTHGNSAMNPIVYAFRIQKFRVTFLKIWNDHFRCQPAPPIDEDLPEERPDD

[1] = biological target: T2, Alpha-2B adrenergic receptor (Homo sapiens, UniProt P18089)
T2 sequence (P18089 whole entry): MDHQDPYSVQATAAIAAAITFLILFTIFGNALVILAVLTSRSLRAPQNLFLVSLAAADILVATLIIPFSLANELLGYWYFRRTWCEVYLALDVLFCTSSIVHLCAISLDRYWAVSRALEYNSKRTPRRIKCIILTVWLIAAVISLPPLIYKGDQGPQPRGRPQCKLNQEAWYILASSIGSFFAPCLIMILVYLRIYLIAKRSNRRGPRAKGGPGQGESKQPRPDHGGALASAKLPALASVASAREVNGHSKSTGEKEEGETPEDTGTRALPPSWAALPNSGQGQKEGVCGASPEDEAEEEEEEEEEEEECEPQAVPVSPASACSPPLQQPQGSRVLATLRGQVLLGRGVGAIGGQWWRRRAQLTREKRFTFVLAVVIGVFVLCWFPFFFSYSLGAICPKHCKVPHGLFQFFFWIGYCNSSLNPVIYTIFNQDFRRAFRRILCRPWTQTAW

[2] = biological target: Beta-1 adrenergic receptor (Homo sapiens, UniProt P08588); format: functional
Chain of Beta-1 adrenergic receptor (P08588 whole entry): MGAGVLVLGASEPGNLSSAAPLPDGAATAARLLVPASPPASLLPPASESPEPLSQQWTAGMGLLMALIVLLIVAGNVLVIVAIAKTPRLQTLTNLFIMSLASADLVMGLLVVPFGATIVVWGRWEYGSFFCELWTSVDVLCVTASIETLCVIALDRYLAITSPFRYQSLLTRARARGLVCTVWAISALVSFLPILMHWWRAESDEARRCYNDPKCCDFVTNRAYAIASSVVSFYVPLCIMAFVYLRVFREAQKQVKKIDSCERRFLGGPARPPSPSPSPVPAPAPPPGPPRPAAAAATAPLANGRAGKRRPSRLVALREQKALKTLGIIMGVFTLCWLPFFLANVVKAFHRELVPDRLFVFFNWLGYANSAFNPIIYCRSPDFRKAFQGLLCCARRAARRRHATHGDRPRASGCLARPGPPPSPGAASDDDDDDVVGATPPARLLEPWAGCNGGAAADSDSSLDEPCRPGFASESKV

[3] = biological target: T3, Type-1 angiotensin II receptor (Homo sapiens, UniProt P30556)
T3 sequence (P30556 whole entry): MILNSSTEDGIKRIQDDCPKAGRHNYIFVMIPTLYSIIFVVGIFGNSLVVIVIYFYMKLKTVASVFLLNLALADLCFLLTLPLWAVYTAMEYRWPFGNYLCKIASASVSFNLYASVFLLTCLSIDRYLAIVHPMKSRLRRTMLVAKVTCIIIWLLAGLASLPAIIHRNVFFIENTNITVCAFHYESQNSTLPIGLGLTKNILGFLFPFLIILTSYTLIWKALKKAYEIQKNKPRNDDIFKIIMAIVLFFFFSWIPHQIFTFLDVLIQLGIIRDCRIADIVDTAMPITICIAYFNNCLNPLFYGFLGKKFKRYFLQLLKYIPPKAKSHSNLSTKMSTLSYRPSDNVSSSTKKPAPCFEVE

[4] = biological target: T4, Cholecystokinin receptor type A (Homo sapiens, UniProt P32238)
T4 sequence (P32238 whole entry): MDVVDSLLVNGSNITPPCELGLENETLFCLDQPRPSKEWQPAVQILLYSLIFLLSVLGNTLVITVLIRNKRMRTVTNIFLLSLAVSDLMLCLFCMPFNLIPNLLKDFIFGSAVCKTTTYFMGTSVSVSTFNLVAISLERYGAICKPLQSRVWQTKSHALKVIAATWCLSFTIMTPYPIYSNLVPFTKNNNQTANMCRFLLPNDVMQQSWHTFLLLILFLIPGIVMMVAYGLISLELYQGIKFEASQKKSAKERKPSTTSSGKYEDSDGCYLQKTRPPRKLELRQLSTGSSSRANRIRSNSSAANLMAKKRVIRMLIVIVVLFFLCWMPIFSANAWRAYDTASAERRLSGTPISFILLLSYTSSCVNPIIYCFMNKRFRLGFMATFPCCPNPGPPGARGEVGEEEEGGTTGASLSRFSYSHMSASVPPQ

Cannabinoid receptor 1 = Cannabinoid receptor 1 (Homo sapiens, UniProt P21554); format: functional, cell-based
Chain of Cannabinoid receptor 1 (P21554 whole entry): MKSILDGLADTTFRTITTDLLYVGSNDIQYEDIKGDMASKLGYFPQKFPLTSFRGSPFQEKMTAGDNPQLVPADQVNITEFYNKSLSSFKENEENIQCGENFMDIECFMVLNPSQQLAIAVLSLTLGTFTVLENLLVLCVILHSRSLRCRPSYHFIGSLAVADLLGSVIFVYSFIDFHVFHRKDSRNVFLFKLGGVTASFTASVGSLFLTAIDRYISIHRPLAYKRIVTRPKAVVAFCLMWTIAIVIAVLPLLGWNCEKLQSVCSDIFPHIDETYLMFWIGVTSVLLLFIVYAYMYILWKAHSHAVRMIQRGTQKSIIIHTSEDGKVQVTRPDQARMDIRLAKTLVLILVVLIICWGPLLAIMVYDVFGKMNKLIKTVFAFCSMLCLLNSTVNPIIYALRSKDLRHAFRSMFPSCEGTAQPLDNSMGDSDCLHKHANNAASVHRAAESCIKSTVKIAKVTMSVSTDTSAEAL

[5] = biological target: Voltage-gated inwardly rectifying potassium channel KCNH2 (Homo sapiens, UniProt Q12809); format: functional; details: read-out: AC50
Chain of Voltage-gated inwardly rectifying potassium channel KCNH2 (Q12809 whole entry): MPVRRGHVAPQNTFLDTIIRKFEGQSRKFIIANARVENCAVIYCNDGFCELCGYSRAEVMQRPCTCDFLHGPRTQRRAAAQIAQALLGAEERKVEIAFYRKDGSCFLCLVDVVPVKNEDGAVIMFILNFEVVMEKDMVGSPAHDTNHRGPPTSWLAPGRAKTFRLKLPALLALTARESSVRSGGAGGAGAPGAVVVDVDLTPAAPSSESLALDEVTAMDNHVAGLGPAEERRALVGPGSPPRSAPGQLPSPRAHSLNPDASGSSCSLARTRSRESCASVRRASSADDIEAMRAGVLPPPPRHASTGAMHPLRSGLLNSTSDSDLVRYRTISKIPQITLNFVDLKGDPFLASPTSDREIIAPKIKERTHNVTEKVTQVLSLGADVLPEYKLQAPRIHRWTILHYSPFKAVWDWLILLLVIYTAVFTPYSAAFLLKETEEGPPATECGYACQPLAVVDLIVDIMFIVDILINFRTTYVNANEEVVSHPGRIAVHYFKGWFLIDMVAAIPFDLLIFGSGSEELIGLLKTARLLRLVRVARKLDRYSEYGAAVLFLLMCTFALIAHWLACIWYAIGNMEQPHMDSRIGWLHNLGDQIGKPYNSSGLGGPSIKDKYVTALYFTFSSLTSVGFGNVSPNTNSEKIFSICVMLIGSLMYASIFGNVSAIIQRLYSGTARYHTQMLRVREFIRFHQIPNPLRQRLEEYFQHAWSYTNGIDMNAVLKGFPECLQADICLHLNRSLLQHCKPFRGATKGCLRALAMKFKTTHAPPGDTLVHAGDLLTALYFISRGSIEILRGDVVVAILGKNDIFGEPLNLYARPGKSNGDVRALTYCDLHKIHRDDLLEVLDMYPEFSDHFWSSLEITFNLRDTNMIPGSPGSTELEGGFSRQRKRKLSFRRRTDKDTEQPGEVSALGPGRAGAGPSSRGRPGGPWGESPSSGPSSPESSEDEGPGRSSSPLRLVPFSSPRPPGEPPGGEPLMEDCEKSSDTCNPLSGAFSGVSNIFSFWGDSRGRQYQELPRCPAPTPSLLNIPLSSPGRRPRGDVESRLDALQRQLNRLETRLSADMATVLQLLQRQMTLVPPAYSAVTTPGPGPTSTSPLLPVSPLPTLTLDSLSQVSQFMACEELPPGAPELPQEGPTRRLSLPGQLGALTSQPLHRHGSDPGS

[6] = biological target: T5, Equilibrative nucleoside transporter 1 (Homo sapiens, UniProt Q99808)
T5 sequence (Q99808 whole entry): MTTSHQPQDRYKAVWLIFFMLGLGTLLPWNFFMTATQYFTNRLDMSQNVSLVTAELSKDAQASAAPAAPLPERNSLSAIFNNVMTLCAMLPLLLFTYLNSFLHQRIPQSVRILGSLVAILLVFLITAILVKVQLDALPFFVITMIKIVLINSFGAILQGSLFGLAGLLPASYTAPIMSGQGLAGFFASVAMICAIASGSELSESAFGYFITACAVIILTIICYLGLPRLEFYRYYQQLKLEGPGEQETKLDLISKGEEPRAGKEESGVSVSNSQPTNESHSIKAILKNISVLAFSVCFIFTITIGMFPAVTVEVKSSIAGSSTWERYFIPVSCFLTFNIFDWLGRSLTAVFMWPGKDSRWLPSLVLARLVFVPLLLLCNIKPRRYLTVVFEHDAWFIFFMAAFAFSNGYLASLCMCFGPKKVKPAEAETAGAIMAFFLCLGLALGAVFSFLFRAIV

Mu-type opioid receptor = Mu-type opioid receptor (Homo sapiens, UniProt P35372)
Chain of Mu-type opioid receptor (P35372 whole entry): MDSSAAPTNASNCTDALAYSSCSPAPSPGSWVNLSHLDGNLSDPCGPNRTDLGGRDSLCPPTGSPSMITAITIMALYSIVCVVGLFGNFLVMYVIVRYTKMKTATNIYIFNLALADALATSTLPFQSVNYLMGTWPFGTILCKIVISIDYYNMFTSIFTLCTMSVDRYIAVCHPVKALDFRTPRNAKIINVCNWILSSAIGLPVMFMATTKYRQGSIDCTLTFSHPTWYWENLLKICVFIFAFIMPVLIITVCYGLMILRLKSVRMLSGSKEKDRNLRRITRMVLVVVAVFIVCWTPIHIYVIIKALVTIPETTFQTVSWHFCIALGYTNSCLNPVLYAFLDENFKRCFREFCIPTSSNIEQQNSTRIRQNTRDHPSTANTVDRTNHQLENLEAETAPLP

[7] = biological target: T6, Alpha-1A adrenergic receptor (Homo sapiens, UniProt P35348); format: functional, cell-based
T6 sequence (P35348 whole entry): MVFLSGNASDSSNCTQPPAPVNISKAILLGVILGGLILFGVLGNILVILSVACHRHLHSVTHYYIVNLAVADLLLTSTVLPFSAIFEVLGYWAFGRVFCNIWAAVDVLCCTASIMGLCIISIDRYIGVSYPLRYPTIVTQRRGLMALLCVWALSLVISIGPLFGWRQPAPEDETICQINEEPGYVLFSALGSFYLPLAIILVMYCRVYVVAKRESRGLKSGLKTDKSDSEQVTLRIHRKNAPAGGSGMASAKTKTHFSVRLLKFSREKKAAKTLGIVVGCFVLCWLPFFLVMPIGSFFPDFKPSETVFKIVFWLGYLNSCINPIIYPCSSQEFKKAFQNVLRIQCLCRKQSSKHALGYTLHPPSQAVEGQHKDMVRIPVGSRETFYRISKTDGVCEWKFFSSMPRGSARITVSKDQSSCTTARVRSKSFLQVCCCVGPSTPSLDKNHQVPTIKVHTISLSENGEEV
Further: assay procedure not described here.

Row | SMILES | AC50 (Adenosine receptor A1) [µM] | AC50 [1] [µM] | AC50 [2] [µM] | AC50 [3] [µM] | AC50 [4] [µM] | AC50 (Cannabinoid receptor 1) [µM] | AC50 [5] [µM] | AC50 [6] [µM] | AC50 (Mu-type opioid receptor) [µM] | AC50 [7] [µM]
1 | COc1ccc(C(Cl)=C(c2ccc(OC)cc2)c2ccc(OC)cc2)cc1 [CHLOROTRIANISENE] | > 30 | > 30 | > 30 | > 30 | > 30 | > 30 | > 30 | > 30 | > 30 | 21
2 | C=C(c1ccccc1OCc1cccc(Cl)c1)n1ccnc1 [CROCONAZOLE] | > 30 | > 10 | > 30 | > 30 | > 30 | > 30 | 4.97 | > 30 | > 30 | 21
